From patent US20090137554A1, “1,4,5,6-TETRAHYDRO -PYRROLO[2,3-d]AZEPINES AND -IMIDAZO[4,5-d]AZEPINES AS MODULATORS OF NUCLEAR RECEPTOR ACTIVITY” (Wyeth, priority 2007, published 2009)

Target: T1, Gal4/hFXR fusion protein (Homo sapiens, UniProt Q96RI1)
T1 sequence (Q96RI1 262-486 limits assumed): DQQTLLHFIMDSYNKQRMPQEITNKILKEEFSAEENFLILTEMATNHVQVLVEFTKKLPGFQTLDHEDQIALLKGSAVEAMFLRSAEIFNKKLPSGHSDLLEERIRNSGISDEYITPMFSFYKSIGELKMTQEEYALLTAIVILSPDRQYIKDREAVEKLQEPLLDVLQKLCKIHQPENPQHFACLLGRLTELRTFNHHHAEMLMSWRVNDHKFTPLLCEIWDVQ
Experiment: Gal4/hFXR fusion protein agonist activity in human 293 cells (luciferase reporter)
Type: cell-based
Conditions: Human 293 stable clone 2 expressing Gal4/hFXR, 24 hours incubation
Description: Characterization of Compounds for Gal4/hFXR Fusion Protein Agonist Activity in Human 293 Cells
• 1. Compounds to be tested are prepared as 2× stocks in assay medium. • 2. […] The supernatant is removed and the cells are resuspended in 1 ml assay medium. The cells are counted and diluted in assay medium to 200,000 cells per ml. The cells are then plated at 10,000 cells per well in Culturplate-96 plates in 50 μL assay medium. The cells are incubated at 37° C. for approximately 1 hour. • 3. […] All assays include 1 uM GW4064 as a reference standard. • 4. Cells are incubated for 24 hours at 37° C.
• 5. The medium is removed, and the cells are lysed in 25 uL lysis buffer (Promega, E3971). • 6. The plates are analyzed for luciferase activity with luciferase assay reagent (Promega E1483). Plates are read on Victor^3V instrument using the protocol “Shuguang Luciferase assay” (dispense volume=100 uL, plate type=“Packard Viewplate”, measurement height=8 mm from bottom of plate, 5 second read per well).
• 1. For agonist single point screening, data are analyzed in Excel. Each compound is tested in triplicate. The fold stimulation of each compound is calculated as RLUcpd/RLUbkgd. • 2. Comparison to GW4064 is made by the equation (RLUcpd/RLUbkgd)/(RLUGW4064/RLUbkgd) • 3. For agonist potency determinations, statistical analysis of the data is performed using a customized Excel/SAS program.

SMILES | EC50
CC(C)OC(=O)C1=CN(C(=O)c2ccc(F)c(F)c2)CC(C)(C)c2cc(C#N)[nH]c21 [Example 1, iso-Propyl 2-cyano-6-(3,4-difluorobenzoyl)-4,4-dimethyl-1,4,5,6-tetrahydropyrrolo[2,3-d]azepine-8-carboxylate] | 5.3 nM
CC(C)OC(=O)C1=CN(C(=O)c2cccc(C(F)(F)F)c2)CC(C)(C)c2cc(C#N)[nH]c21 [Example 8, iso-Propyl 2-cyano-4,4-dimethyl-6-[3-(trifluoromethyl)benzoyl]-1,4,5,6-tetrahydropyrrolo[2,3-d]azepine-8-carboxylate] | 8 nM
CC(C)OC(=O)C1=CN(C(=O)c2ccc(F)c(F)c2)CC2(CCOCC2)c2cc(C#N)[nH]c21 [Example 10, iso-Propyl 2′-cyano-6′-(3,4-difluorobenzoyl)-2,3,5,5′,6,6′-hexahydro-1′H-spiro[pyran-4,4′-pyrrolo[2,3-d]azepine]-8′carboxylate] | 86 nM

More lines, now with the values ahead:

EC50 | SMILES
22 nM | CC(C)OC(=O)C1=CN(C(=O)c2cccs2)CC(C)(C)c2cc(C#N)[nH]c21 [Example 7, iso-Propyl 2-cyano-4,4-dimethyl-6-(2-thienylcarbonyl)-1,4,5,6-tetrahydropyrrolo[2,3-d]azepine-8-carboxylate]
8.9 nM | CC(C)OC(=O)C1=CN(C(=O)C2CCOCC2)CC(C)(C)c2cc(C#N)[nH]c21 [Example 9, iso-Propyl 2-cyano-4,4-dimethyl-6-(tetrahydro-2H-pyran-4-ylcarbonyl)-1,4,5,6-tetrahydropyrrolo[2,3-d]azepine-8-carboxylate]
